Like-named read-outs stand apart in the source and are kept apart here.
Experiments:
[1] = tested on: human non-small cell lung cancer cells NCI-H358 with KRas G12C mutation; experiment: NCI-H358 cell proliferation, CellTiter-Glo Luminescent Cell Viability Assay; type: cell-based; conditions: for inhibition at 1 µM: 1 μM compound, read-out: Inhibition rate % (1 μM)
From the text: This assay verified the inhibitory activity of the compounds of the present disclosure on the proliferation of human non-small cell lung cancer cells NCI-H358 with KRas G12C mutation by using Promega's CellTiter-Glo® Luminescent Cell Viability Assay kit.
[Test materials]: NCI-H358 cell line (Cell Resource Center, IBMS, CAMS/PUMC, Item number: 3111C0001CCC000470), 96-well transparent flat-bottomed black-walled cell culture plate (Greiner Bio one, Cat #655096), RPMI-1640 Medium (GE, Cat #SH30809.01), Fetal Bovine Serum FBS (Thermo Fisher, Cat #10099-141), CellTiter-Glo® Luminescent Cell Viability Assay Kit (Promega, Cat #G7573), PBS (Solarbio, Cat #P1020), Trypsin (Thermo Fisher, Cat #25200072), DMSO (Sigma, Cat #D2650), Methyl cellulose (SIGMA, Cat #9004-67-5).
[Experimental procedure]: 180 μL of cell suspension (RPMI1640 solution with 10% FBS and 1% methyl cellulose) was charged to a 96-well cell culture plate at a density of 1500 cells/well. A control group containing no cells, no compounds and only 3D complete medium (RPMI 1640 solution with 1! Methyl cellulose and 10% FBS) (i.e. culture medium control) and a control group containing no compounds but cells (i.e. cell control) were set. AMG510 or the following reference compounds were used as positive controls. The cell plate was placed in a cell incubator overnight. A 10-fold drug solution (RPMI1640 solution with 10% FBS and 1% DMSO) was prepared at a concentration of 10 μM, and 20 μL of this solution was added to each well of the 96-well plate seeded with cells, so that the final concentration of the compounds in each well was 1 μM, and the DMSO concentration […] replicate wells were set up for each compound. The solutions of AMG510 or the following reference compounds were prepared in the same way and added to the positive control wells. The cell plate was placed in a cell incubator and cultured for 120 h. For endpoint detection, the CellTiter-Glo reagent was melted, and the cell plate was moved to room temperature to equilibrate for 30 minutes, added with 100 µL of CellTiter-Glo to each well, and shaken on an orbital shaker for 5 minutes to fully lyse the cells. The plate was kept at room temperature for 20 minutes to stabilize the luminescence signal, and the luminescence value of each well was full wavelength scanned with a multi-functional microplate reader (Molecular Devices, Spectramax M3 microplate reader).
[Test samples] The compounds of Examples 1-39, and reference compound A
[Data Analysis] The following formula was used to calculate the cell inhibition rate under the action of each concentration of the compounds:
Inhibition rate %=[1−(LumDrug to be tested−LumCulture medium control)/(LumCell control−LUMCulture medium control)]×100%
IC50 values were calculated using GraphPad Prism 7.0 software, nonlinear Sigmoidal regression was used to fit the data to obtain a dose-response curve.

[2] = Cassette pharmacokinetic experiment in rats (IV); type: in vivo; conditions: rat, plasma, 1 mg/kg, male SD rats, tail vein IV, 1 mg/mL each compound at 1 mL/kg
From the text: 2.1 Pharmacokinetic Properties of Some Compounds of the Present Disclosure Evaluated by Cassette Pharmacokinetic Experiments in Rats.
[Test materials]: Male SD rats, age: 6-8 weeks, body weight 220-250 g, purchased from Zhaoyan (Suzhou) New Drug Research Center Co., Ltd.; Tolbutamide (Aladdin, Cat #H1401054); Sulfobutyl-(Captisol, Shandong Binzhou Zhiyuan Biological Technology Co., Ltd, Cat #20191013); Propylene glycol (15)-stearate (Solutol, Meilun Bio, Cat #50206A); DMSO (Vetec Company, Cat #WXBD0293V); acetonitrile (Sigma-Aldrich, Cat #WXBD1744V); Methanol (Sigma-Aldrich, Cat #WXBD2831V).
[Experimental procedure]: The compound combination was prepared in a solvent of 5% DMSO/10% Solutol/85% (20% Captisol), and the final concentration of each compound was 1 mg/mL. The SD rats were treated with the compound preparation in 1 mL/kg by tail vein IV injection, and blood samples were collected at the time points of 5 min, 15 min, 30 min, 1 h, 2 h, 4 h, 8 h, and 24 h via external jugular vein puncture, centrifuged at low temperature for 20 minutes to collect plasma samples, which were stored at −80° C. until analysis.
[Sample analysis]: Establishing LC-MS/MS compound analysis method
Standard curve preparation: 20 μL of lmg/mL DMSO stock solution for each compound was aspirated and transferred to […] of 50% methanol working solution, and the resulting solution was serially diluted to obtain a standard curve working solution with concentrations of 20000, 10000, 5000, 1000, 500, 100, 50, 20 and […]. Then 5 µL of this standard curve working solution was mixed with 45 μL rat blank plasma to give a standard curve with concentrations of 2000, 1000, 500, 100, 50, 10, 2 and 1 ng/mL for quantification of unknown samples.
Sample pretreatment: 50 μL of unknown plasma sample or standard curve sample was mixed with 250 μL of acetonitrile containing internal standard as a precipitant. The plasma protein was precipitated, extracted for test compounds, and centrifuged at low temperature for 20 minutes. The supernatant was taken, mixed with 0.1% formic acid aqueous solution, and 5 μL of the resulting solution was aspirated for blood concentration analysis.
[Data processing]: A standard curve was plotted using mass spectrometry software, to quantify unknown samples, and pharmacokinetic parameters are calculated by Winnonlin 8.2 using the drug concentration of unknown samples at each time point.

## C=CC(=O)N1CCN(c2c(C#N)c(-c3cccc(CN(C)C)c3)nc3c(F)c(-c4ccc(F)c5sc(N)nc45)c(Cl)cc23)CC1 [Example 3, 4-(4-Acryloylpiperazin-1-yl)-7-(2-amino-7-fluorobenzo[d]thiazol-4-yl)-6-chloro-2-(3-((dimethylamino)methyl)phenyl)-8-fluoroquinoline-3-carbonitrile]
[1]; 120 h
  inhibition at 1 µM: 97.7%
[1]; 120 h, read-out: IC50
  IC50: 9 nM
[1]; read-out: IC50 value
  IC50: < 20 nM

## C=CC(=O)N1CCN(c2c(C#N)c(-c3ccnn3CCN(C)C)nc3c(F)c(-c4ccc(F)c5sc(N)nc45)c(Cl)cc23)CC1 [Example 4, 4-(4-Acryloylpiperazin-1-yl)-7-(2-amino-7-fluorobenzo[d]thiazol-4-yl)-6-chloro-2-(1-(2-(dimethylamino)ethyl)-1H-pyrazol-5-yl)-8-fluoroquinoline-3-carbonitrile]
[1]; 120 h
  inhibition at 1 µM: 94.8%
[1]; 120 h, read-out: IC50
  IC50: 53 nM

## C=CC(=O)N1CCN(c2c(C#N)c(-c3cccc(C(C)N(C)C)c3)nc3c(F)c(-c4ccc(F)c5sc(N)nc45)c(Cl)cc23)CC1 (stereo not drawn) [Example 5, 4-(4-Acryloylpiperazin-1-yl)-7-(2-amino-7-fluorobenzo[d]thiazol-4-yl)-6-chloro-2-(3-(1-(dimethylamino)ethyl)phenyl)-8-fluoroquinoline-3-carbonitrile]
[1]; 120 h
  inhibition at 1 µM: 94.9%
[1]; 120 h, read-out: IC50
  IC50: 7 nM
[1]; read-out: IC50 value
  IC50: < 20 nM

## C=CC(=O)N1CCN(c2c(C#N)c(-c3cccc(CN(C)C)c3)nc3c(F)c(-c4ccc(F)c5sc(N)nc45)c(Cl)cc23)C[C@H]1C [Example 6, 4-((R)-4-acryloyl-3-methylpiperazin-1-yl)-7-(2-amino-7-fluorobenzo[d]thiazol-4-yl)-6-chloro-2-(3-((dimethylamino)methyl)phenyl)-8-fluoroquinoline-3-carbonitrile]
[1]; 120 h
  inhibition at 1 µM: 95%
[1]; 120 h, read-out: IC50
  IC50: 17 nM
[1]; read-out: IC50 value
  IC50: < 20 nM

## C=CC(=O)N1CCN(c2c(C#N)c(-c3ccnn3CCN(C)C)nc3c(F)c(-c4ccc(F)c5sc(N)nc45)c(Cl)cc23)C[C@H]1C [Example 7, 4-((R)-4-acryloyl-3-methylpiperazin-1-yl)-7-(2-amino-7-fluorobenzo[d]thiazol-4-yl)-6-chloro-2-(1-(2-(dimethylamino)ethyl)-1H-pyrazol-5-yl)-8-fluoroquinoline-3-carbonitrile]
[1]; 120 h
  inhibition at 1 µM: 90%
[1]; 120 h, read-out: IC50
  IC50: 260 nM

## C=CC(=O)N1CCN(c2c(C#N)c(OC)nc3c(F)c(-c4ccc(F)c5sc(N)nc45)c(Cl)cc23)CC1 [Example 13, 4-(4-Acryloylpiperazin-1-yl)-7-(2-amino-7-fluorobenzo[d]thiazol-4-yl)-6-chloro-8-fluoro-2-methoxyquinoline-3-carbonitrile]
[2]
  AUC(0-t): 1950 ng·h/mL
  clearance: 8.58 mL/min/kg
  half-life: 1.37 h

## C=CC(=O)N1CCN(c2c(C#N)c(-c3ccnn3C)nc3c(F)c(-c4ccc(F)c5sc(N)nc45)c(Cl)cc23)CC1 [Example 14, 4-(4-Acryloylpiperazin-1-yl)-7-(2-amino-7-fluorobenzo[d]thiazol-4-yl)-6-chloro-8-fluoro-2-(1-methyl-1H-pyrazol-5-yl)quinoline-3-carbonitrile]
[2]
  AUC(0-t): 1100 ng·h/mL
  clearance: 15.1 mL/min/kg
  half-life: 1.58 h

## C=CC(=O)N1CCN(c2c(C#N)c(-c3cn(C)nc3C)nc3c(F)c(-c4ccc(F)c5sc(N)nc45)c(Cl)cc23)CC1 [Example 15, 4-(4-Acryloylpiperazin-1-yl)-7-(2-amino-7-fluorobenzo[d]thiazol-4-yl)-6-chloro-2-(1,3-dimethyl-1H-pyrazol-4-yl)-8-fluoroquinoline-3-carbonitrile]
[2]
  AUC(0-t): 717 ng·h/mL
  clearance: 23.3 mL/min/kg
  half-life: 1.03 h

## C=C(F)C(=O)N1CCN(c2c(C#N)cnc3c(F)c(-c4ccc(F)c5sc(N)nc45)c(Cl)cc23)CC1 [Example 16, 7-(2-Amino-7-fluorobenzo[d]thiazol-4-yl)-6-chloro-8-fluoro-4-(4-(2-fluoroaryloxy)piperazin-1-yl)quinoline-3-carbonitrile]
[2]
  AUC(0-t): 2790 ng·h/mL
  clearance: 5.93 mL/min/kg
  half-life: 3.5 h

## C=CC(=O)N1CCN(c2c(C#N)c(C)nc3c(F)c(-c4ccc(F)c5sc(N)nc45)c(Cl)cc23)CC1 [Example 17, 4-(4-Acryloylpiperazin-1-yl)-7-(2-amino-7-fluorobenzo[d]thiazol-4-yl)-6-chloro-8-fluoro-2-methylquinoline-3-carbonitrile]
[1]; read-out: IC50 value
  IC50: < 50 nM

## C=CC(=O)N1CCN(c2c(C#N)c(N)nc3c(F)c(-c4ccc(F)c5sc(N)nc45)c(Cl)cc23)CC1 [Example 20, 4-(4-Acryloylpiperazin-1-yl)-2-amino-7-(2-amino-7-fluorobenzo[d]thiazol-4-yl)-6-chloro-8-fluoroquinoline-3-carbonitrile]
[1]; read-out: IC50 value
  IC50: < 50 nM

## C=CC(=O)N1CCN(c2c(C#N)c(C)nc3c(F)c(-c4ccc(F)c5sc(N)nc45)c(Cl)cc23)C[C@@H]1CC#N [Example 32]
[1]; read-out: IC50 value
  IC50: < 50 nM

## C=CC(=O)N1CCN(c2c(C#N)c(N)nc3c(F)c(-c4cccc5sc(N)nc45)c(Cl)cc23)CC1 [Example 33, 4-(4-Acryloylpiperazin-1-yl)-2-amino-7-(2-aminobenzo[d]thiazol-4-yl)-6-chloro-8-fluoroquinoline-3-carbonitrile]
[1]; read-out: IC50 value
  IC50: < 50 nM

## C=CC(=O)N1CCN(c2c(C#N)c(N)nc3c(F)c(-c4c(F)ccc5sc(N)nc45)c(Cl)cc23)CC1 [Example 34, 4-(4-Acryloylpiperazin-1-yl)-2-amino-7-(2-amino-5-fluorobenzo[d]thiazol-4-yl)-6-chloro-8-fluoroquinoline-3-carbonitrile]
[1]; read-out: IC50 value
  IC50: < 50 nM

## C=CC(=O)N1CCN(c2c(C#N)c(NC(C)=O)nc3c(F)c(-c4ccc(F)c5sc(N)nc45)c(Cl)cc23)CC1 [Example 37, N-(4-(4-acryloylpiperazin-1-yl)-7-(2-amino-7-fluorobenzo[d]thiazol-4-yl)-6-chloro-3-cyano-8-fluoroquinolin-2-yl)acetamide]
[1]; read-out: IC50 value
  IC50: < 50 nM

## C=CC(=O)N1CCN(c2c(C#N)cnc3c(OC)c(-c4ccc(F)c5sc(N)nc45)c(Cl)cc23)CC1 [Example 39, 4-(4-Acryloylpiperazin-1-yl)-7-(2-amino-7-fluorobenzo[d]thiazol-4-yl)-6-chloro-8-methoxy quinoline-3-carbonitrile]
[1]; read-out: IC50 value
  IC50: < 20 nM

## C=CC(=O)N1CCN(c2c(C#N)cnc3c(F)c(-c4c(C)ccc5[nH]ncc45)c(Cl)cc23)CC1 [Ref. Comp. B, reference compound]
[1]; 120 h, read-out: IC50
  IC50: 350 nM

Reference: patent US20230406849A1, “KRAS INHIBITORS FOR TREATMENT OF CANCERS” (TYLIGAND BIOSCIENCE (SHANGHAI) LIMITED, priority 2020, published 2023)
